Tested on: peripheral blood mononuclear cells (PBMC)
Test: Cytokine and immune-function gene expression of PBMC in vitro (qRT-PCR, 41 immune-related genes)
Type: cell-based, human
Conditions: for Ratio of absolute IFNG gene expression in group A vs. Groups B + C pooled: group A day 57 after SADBE
Description: After a screening visit at which blood was drawn to test for IgG antibody against HSV-1 and subjects were interviewed for inclusion/exclusion criteria, selected subjects returned for blood draws on day 1. After the blood draw on day 1, subjects in group A only were dosed with SADBE. A petrolatum donut was applied with a cotton swab to form about a 1 cm diameter donut on skin on the inner aspect of the upper arm. Then a separate cotton swab was dipped in a 2% SADBE solution (w/v) in DMSO, and the swab was then used to apply about 10-20 mg of solution over about a 1 cm diameter circle within the petrolatum donut. Immediately after application, the application site was covered with TEGADERM. Subjects were advised to remove the TEGADERM and rinse and wipe the spot three hours later. The group A subjects then returned for blood draws on days 15 and 57 and were queried about adverse events on those dates.
PBMC were isolated using SepMate PBMC isolation tubes (Stem Cell Technologies, Vancouver, Canada) and Ficoll-Paque according to the manufacturer's instructions. PBMC were isolated and suspended in negative control medium at 2 million cells/ml. PBMC suspension (100 μL) was added to 100 μL of medium in quadruplicate in 96-well plates. The plates were prepared in advance and stored at −70° C. The wells were in five different conditions in quadruplicate with these final concentrations after addition of the 100 μL of PBMC suspension in negative control medium. • 1. Negative control in medium (RPMI with glutamine and pen/strep, supplemented with 10% human A/B serum). • 2. Medium plus 16 μg/ml protein from heat-inactivated HSV-1-infected Vero cell extracts. • 3. Medium plus heat-inactivated HSV-1 cell-free virus at a final 7.5 million pfu/ml. • 4. Medium plus Candida cell extract. (Greer item number M15A50, 20,000 pnu/ml allergenic extract mixed molds Candida albicans, was diluted 1/50 into medium). • 5. Positive control, medium plus 10 μg/ml concanavalin A.
Two plates were created for each subject at each collection point. One plate was incubated for 2 days at 37° C. in a humidified 5% CO2 atmosphere and then RNA was isolated from the pooled contents of the 4 wells of a given condition for a specific patient, and the RNA was stored at −70° C. and subsequently used for quantitative real time PCR analysis of gene expression of 41 immune-related genes.
As noted above, after 2 days of growth of the PBMC in a 37° C. humidified 5% CO2 incubator in a 96-well plate, four wells of a single condition (negative control, positive control, heat-inactivated HSV-1, HSV-1-infected cell extracts, or Candida extract) with cells from a single subject (200 μL in each well) were pooled, and the RNA was immediately isolated with Trizol reagent and chloroform by Qiagen RNeasy MiniElute clean up kit Qiagen cat #74204, according to manufacturer's instructions into a final volume of 13 μL, and then flash frozen on powdered dry ice, and stored at −70° C. in aliquots of 3 μL for RNA quantification and 10 μL for PCR analysis.
RNA was preamplified with the Qiagen RT2 PreAMP cDNA synthesis kit (Ref. 330451) and custom RT2 PreAmp primer mix (Ref. 330141) starting with about 50 ng RNA according to the procedure of RT preamp cDNA synthesis handbook date March 2011, pages 17-20. The amplification reactions (final 120 μL) were frozen at −70° C. and used for qPCR analysis the next day.
qPCR was done with the Qiagen RT PCR profiler gene analysis kit (catalog number 330451) using RT2 Sybr Green Rox qPCR Mastermix (24) (Part 330523) and Custom RT2 PCR array plates (Ref. 330171). For this 675 μL 2×RT2 SYBR green mastermix, 51 μL pre-AMP synthesis reaction, and 623 μL RNase free water were mixed, and then 25 μL of the mixture was added to 48 wells on the left or right half of the custom PCR plate. The PCR instrument was Applied Biosystems 7900HT fast real time PCR. […]

[1] = PBMC + Candida extract, group A day 57 vs day 1 (pre-dose), one topical 2% SADBE dose

Structure (SMILES): CCCCOc1c(OCCCC)c(=O)c1=O [SADBE, 3,4-Dibutoxy-3-cyclobutene-1,2-dione]
- LTA ratio of PBMC absolute gene expression day 57/day 1 (Group A, Neg. control): 0.73
- LYZ ratio of PBMC absolute gene expression day 15/day 1 (Group A, Neg. control): 1.18
- LYZ ratio of PBMC absolute gene expression day 57/day 1 (Group A, Neg. control): 0.55
- MX1 ratio of PBMC absolute gene expression day 15/day 1 (Group A, Neg. control): 0.81
- MX1 ratio of PBMC absolute gene expression day 57/day 1 (Group A, Neg. control): 0.47
- NOD1 ratio of PBMC absolute gene expression day 15/day 1 (Group A, Neg. control): 1.14
- NOD1 ratio of PBMC absolute gene expression day 57/day 1 (Group A, Neg. control): 0.87
- SPP1 ratio of PBMC absolute gene expression day 15/day 1 (Group A, Neg. control): 1.35
- SPP1 ratio of PBMC absolute gene expression day 57/day 1 (Group A, Neg. control): 2.38
- STAT1 ratio of PBMC absolute gene expression day 15/day 1 (Group A, Neg. control): 0.86
- STAT1 ratio of PBMC absolute gene expression day 57/day 1 (Group A, Neg. control): 1.29
- STAT4 ratio of PBMC absolute gene expression day 15/day 1 (Group A, Neg. control): 0.94
- STAT4 ratio of PBMC absolute gene expression day 57/day 1 (Group A, Neg. control): 0.88
- TNF ratio of PBMC absolute gene expression day 15/day 1 (Group A, Neg. control): 0.91
- TNF ratio of PBMC absolute gene expression day 57/day 1 (Group A, Neg. control): 1.15
- TNFSF10 ratio of PBMC absolute gene expression day 15/day 1 (Group A, Neg. control): 0.93
- TNFSF10 ratio of PBMC absolute gene expression day 57/day 1 (Group A, Neg. control): 1
- TNFSF13B ratio of PBMC absolute gene expression day 15/day 1 (Group A, Neg. control): 1.03
- TNFSF13B ratio of PBMC absolute gene expression day 57/day 1 (Group A, Neg. control): 0.67
- CCL2 ratio of PBMC absolute gene expression day 15/day 1 (Group A, Virus): 0.88
- CCL2 ratio of PBMC absolute gene expression day 57/day 1 (Group A, Virus): 1.71
- CCL3 ratio of PBMC absolute gene expression day 15/day 1 (Group A, Virus): 0.84
- CCL3 ratio of PBMC absolute gene expression day 57/day 1 (Group A, Virus): 3.73
- CCL7 ratio of PBMC absolute gene expression day 15/day 1 (Group A, Virus): 0.72
- CCL7 ratio of PBMC absolute gene expression day 57/day 1 (Group A, Virus): 1.81
- CCR5 ratio of PBMC absolute gene expression day 15/day 1 (Group A, Virus): 0.87
- CCR5 ratio of PBMC absolute gene expression day 57/day 1 (Group A, Virus): 1.35
- CD80 ratio of PBMC absolute gene expression day 15/day 1 (Group A, Virus): 0.79
- CD80 ratio of PBMC absolute gene expression day 57/day 1 (Group A, Virus): 1.25
- CXCL2 ratio of PBMC absolute gene expression day 15/day 1 (Group A, Virus): 0.91
- CXCL2 ratio of PBMC absolute gene expression day 57/day 1 (Group A, Virus): 1.58
- CXCL5 ratio of PBMC absolute gene expression day 15/day 1 (Group A, Virus): 0.94
- CXCL5 ratio of PBMC absolute gene expression day 57/day 1 (Group A, Virus): 2.52
- CXCL9 ratio of PBMC absolute gene expression day 15/day 1 (Group A, Virus): 1.42
- CXCL9 ratio of PBMC absolute gene expression day 57/day 1 (Group A, Virus): 2.5
- CXCL10 ratio of PBMC absolute gene expression day 15/day 1 (Group A, Virus): 0.74
- CXCL10 ratio of PBMC absolute gene expression day 57/day 1 (Group A, Virus): 1.00
- CXCL11 ratio of PBMC absolute gene expression day 15/day 1 (Group A, Virus): 0.34
- CXCL11 ratio of PBMC absolute gene expression day 57/day 1 (Group A, Virus): 0.40
- DDX58 ratio of PBMC absolute gene expression day 15/day 1 (Group A, Virus): 0.66
- DDX58 ratio of PBMC absolute gene expression day 57/day 1 (Group A, Virus): 0.95
- FOXP3 ratio of PBMC absolute gene expression day 15/day 1 (Group A, Virus): 1.27
- FOXP3 ratio of PBMC absolute gene expression day 57/day 1 (Group A, Virus): 2.46
- GATA3 ratio of PBMC absolute gene expression day 15/day 1 (Group A, Virus): 0.89
- GATA3 ratio of PBMC absolute gene expression day 57/day 1 (Group A, Virus): 0.32
- ICAM1 ratio of PBMC absolute gene expression day 15/day 1 (Group A, Virus): 1.01
- ICAM1 ratio of PBMC absolute gene expression day 57/day 1 (Group A, Virus): 1.07
- IFNA1 ratio of PBMC absolute gene expression day 15/day 1 (Group A, Virus): 0.58
- IFNA1 ratio of PBMC absolute gene expression day 57/day 1 (Group A, Virus): 1.34
- IFNB1 ratio of PBMC absolute gene expression day 15/day 1 (Group A, Virus): 0.78
- IFNB1 ratio of PBMC absolute gene expression day 57/day 1 (Group A, Virus): 0.87
- IFNG ratio of PBMC absolute gene expression day 15/day 1 (Group A, Virus): 1.91
- IFNG ratio of PBMC absolute gene expression day 57/day 1 (Group A, Virus): 11.01
- IL1B ratio of PBMC absolute gene expression day 15/day 1 (Group A, Virus): 0.77
- IL1B ratio of PBMC absolute gene expression day 57/day 1 (Group A, Virus): 5.09
- IL1R1 ratio of PBMC absolute gene expression day 15/day 1 (Group A, Virus): 0.74
- IL1R1 ratio of PBMC absolute gene expression day 57/day 1 (Group A, Virus): 0.97
- IL1RN ratio of PBMC absolute gene expression day 15/day 1 (Group A, Virus): 0.77
- IL1RN ratio of PBMC absolute gene expression day 57/day 1 (Group A, Virus): 1.48
- IL2 ratio of PBMC absolute gene expression day 15/day 1 (Group A, Virus): 1.43
- IL2 ratio of PBMC absolute gene expression day 57/day 1 (Group A, Virus): 2.11
- IL4 ratio of PBMC absolute gene expression day 15/day 1 (Group A, Virus): 0.80
- IL4 ratio of PBMC absolute gene expression day 57/day 1 (Group A, Virus): 1.32
- IL5 ratio of PBMC absolute gene expression day 15/day 1 (Group A, Virus): 0.76
- IL5 ratio of PBMC absolute gene expression day 57/day 1 (Group A, Virus): 0.56
- IL8 ratio of PBMC absolute gene expression day 15/day 1 (Group A, Virus): 1.13
- IL8 ratio of PBMC absolute gene expression day 57/day 1 (Group A, Virus): 3.3
- IL10 ratio of PBMC absolute gene expression day 15/day 1 (Group A, Virus): 0.74
- IL10 ratio of PBMC absolute gene expression day 57/day 1 (Group A, Virus): 2.29
- IL12A ratio of PBMC absolute gene expression day 15/day 1 (Group A, Virus): 0.94
- IL12A ratio of PBMC absolute gene expression day 57/day 1 (Group A, Virus): 1.48
- IL12B ratio of PBMC absolute gene expression day 15/day 1 (Group A, Virus): 0.59
- IL12B ratio of PBMC absolute gene expression day 57/day 1 (Group A, Virus): 2.08
- IL13 ratio of PBMC absolute gene expression day 15/day 1 (Group A, Virus): 1.43
- IL13 ratio of PBMC absolute gene expression day 57/day 1 (Group A, Virus): 3.02
- IL15 ratio of PBMC absolute gene expression day 15/day 1 (Group A, Virus): 1.01
- IL15 ratio of PBMC absolute gene expression day 57/day 1 (Group A, Virus): 1.54
- IL16 ratio of PBMC absolute gene expression day 15/day 1 (Group A, Virus): 0.84
- IL16 ratio of PBMC absolute gene expression day 57/day 1 (Group A, Virus): 0.82
- JAK2 ratio of PBMC absolute gene expression day 15/day 1 (Group A, Virus): 0.84
- JAK2 ratio of PBMC absolute gene expression day 57/day 1 (Group A, Virus): 1.26
- LTA ratio of PBMC absolute gene expression day 15/day 1 (Group A, Virus): 1.26
- LTA ratio of PBMC absolute gene expression day 57/day 1 (Group A, Virus): 1.84
- LYZ ratio of PBMC absolute gene expression day 15/day 1 (Group A, Virus): 1.04
- LYZ ratio of PBMC absolute gene expression day 57/day 1 (Group A, Virus): 0.53
- MX1 ratio of PBMC absolute gene expression day 15/day 1 (Group A, Virus): 0.49
- MX1 ratio of PBMC absolute gene expression day 57/day 1 (Group A, Virus): 0.66
- NOD1 ratio of PBMC absolute gene expression day 15/day 1 (Group A, Virus): 0.85
- NOD1 ratio of PBMC absolute gene expression day 57/day 1 (Group A, Virus): 1.14
- SPP1 ratio of PBMC absolute gene expression day 15/day 1 (Group A, Virus): 1.64
- SPP1 ratio of PBMC absolute gene expression day 57/day 1 (Group A, Virus): 15.29
- STAT1 ratio of PBMC absolute gene expression day 15/day 1 (Group A, Virus): 0.80
- STAT1 ratio of PBMC absolute gene expression day 57/day 1 (Group A, Virus): 1.41
- STAT4 ratio of PBMC absolute gene expression day 15/day 1 (Group A, Virus): 1.03
- STAT4 ratio of PBMC absolute gene expression day 57/day 1 (Group A, Virus): 1.69
- TNF ratio of PBMC absolute gene expression day 15/day 1 (Group A, Virus): 0.97
- TNF ratio of PBMC absolute gene expression day 57/day 1 (Group A, Virus): 1.19
- TNFSF10 ratio of PBMC absolute gene expression day 15/day 1 (Group A, Virus): 0.68
- TNFSF10 ratio of PBMC absolute gene expression day 57/day 1 (Group A, Virus): 1.01
- TNFSF13B ratio of PBMC absolute gene expression day 15/day 1 (Group A, Virus): 0.77
- TNFSF13B ratio of PBMC absolute gene expression day 57/day 1 (Group A, Virus): 1.23
- Ratio of absolute IFNG gene expression in group A vs. Groups B + C pooled (HSV-infected cell extracts): 1.896
- Ratio of absolute IFNG gene expression in group A vs. Groups B + C pooled (Neg Control medium): 1.190
- ratio of absolute expression in A57 vs. A1: CCL2 [1]: 1.16
- ratio of absolute expression in A57 vs. A1: CCL3 [1]: 1.79
- ratio of absolute expression in A57 vs. A1: CCL7 [1]: 2.03
- ratio of absolute expression in A57 vs. A1: CCR5 [1]: 1.42
- ratio of absolute expression in A57 vs. A1: CD80 [1]: 1.57
- ratio of absolute expression in A57 vs. A1: CXCL2 [1]: 1.1
- ratio of absolute expression in A57 vs. A1: CXCL5 [1]: 1.45
- ratio of absolute expression in A57 vs. A1: CXCL9 [1]: 14.21
- ratio of absolute expression in A57 vs. A1: CXCL10 [1]: 12.8
- ratio of absolute expression in A57 vs. A1: CXCL11 [1]: 2.53
- ratio of absolute expression in A57 vs. A1: DDX58 [1]: 1.29

From patent US11957783B2, “Topical immunosensitizers to treat viral and fungal infections” (Squarex, LLC, priority 2018, dated 2024)
